Measured values: ChEMBL document CHEMBL1140333, “Structure-based design, synthesis, and biological evaluation of inhibitors of Mycobacterium tuberculosis type II dehydroquinase” (J Med Chem, 2005)

These molecules were tested against T1, 3-dehydroquinate dehydratase (Mycobacterium tuberculosis, UniProt P9WPX7) (assay: Inhibition of Mycobacterium tuberculosis type II dehydroquinase at 25 degree C pH 8.2).
T1 sequence (P9WPX7 whole entry): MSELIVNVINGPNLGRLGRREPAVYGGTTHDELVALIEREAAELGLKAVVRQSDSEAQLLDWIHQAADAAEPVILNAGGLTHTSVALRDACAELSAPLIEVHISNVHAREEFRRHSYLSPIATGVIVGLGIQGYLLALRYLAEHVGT

Point of comparison: `O=C(O)c1cccc(C2=C[C@@](O)(C(=O)O)C[C@@H](O)[C@@H]2O)c1`, Ki 150000 nM. Against it:
- O=C(O)[C@]1(O)C=C(c2cc(F)cc(F)c2)[C@@H](O)[C@H](O)C1 — 61-fold lower, 2440 nM
- O=C(O)[C@]1(O)C=C(c2ccsc2)[C@@H](O)[C@H](O)C1 — 250-fold lower, 590 nM
- O=C(O)[C@]1(O)C=C(c2cccc([N+](=O)[O-])c2)[C@@H](O)[C@H](O)C1 — 2800-fold lower, 54 nM
- O=C(O)[C@]1(O)C=C(c2cccc(O)c2)[C@@H](O)[C@H](O)C1 — 1.6-fold lower, 95000 nM
- O=C(O)[C@]1(O)C=C(c2cccc(C(F)(F)F)c2)[C@@H](O)[C@H](O)C1 — 71-fold lower, 2120 nM
- O=C(O)[C@]1(O)C=C(c2ccccc2)[C@@H](O)[C@H](O)C1 — 100-fold lower, 1500 nM
- O=C(O)[C@]1(O)C=C(c2ccc(F)cc2)[C@@H](O)[C@H](O)C1 — 83-fold lower, 1800 nM
- O=C(O)[C@]1(O)C=C(c2ccc(C(F)(F)F)cc2)[C@@H](O)[C@H](O)C1 — 8.8-fold lower, 17000 nM
- O=C(O)[C@]1(O)C=C(c2cccc(F)c2)[C@@H](O)[C@H](O)C1 — 100-fold lower, 1500 nM
- O=C(O)[C@]1(O)C/C(=N\O)[C@@H](O)[C@H](O)C1 — 7.5-fold lower, 20000 nM
- O=C(O)[C@]1(O)C=C(F)[C@@H](O)[C@H](O)C1 — 15-fold lower, 10000 nM
- O=C(O)[C@]1(O)C=C(c2ccoc2)[C@@H](O)[C@H](O)C1 — 180-fold lower, 830 nM
- O=C(O)[C@]1(O)C=C(c2cccnc2)[C@@H](O)[C@H](O)C1 — 3.3-fold lower, 45000 nM
